Measured values published in patent publication US12133900B2, “Synthesis and composition of amino acid linking groups conjugated to compounds used for the targeted imaging of tumors” (Purdue Research Foundation, priority 2013, dated 2024).
Entries after “also recorded” stand apart in the source; their conditions may differ.

Key:
[1] = Toxicity in healthy nude mice; assay type: in vivo
Method: Seven-week-old healthy female nude mice (5 mice/group) were administered with 1 μmol of freshly prepared OTL-0038 or OTL-0039 dissolved in 100 μL of phosphate buffered saline via tail vein injection on day zero. Body weights and clinical observations were monitored prior to dosing and daily thereafter from day zero to 7. Any animals with a body weight loss of 20% or more over two consecutive days would be euthanized, but this was not necessary. The animals were euthanized by CO2 asphyxiation on day 7 and selected tissues (brain, heart, lung, liver, spleen, kidney, stomach, small intestine, large intestine, muscle, skin) were collected into vials containing 4% formalin. Formalin fixed tissues were sectioned into 10 μm thick sections and mounted onto Superfrost Plus™ slides (Fisher Scientific, Pittsburgh Pa.). After staining the slides with H&E, immunohistochemistry (IHC) analysis of the tissues was conducted to determine to the toxicity of OTL-0038 and OTL-0039.

[2] = system: folate receptor positive KB tumor xenografts; experiment: Whole body imaging and tissue biodistribution, KB tumor xenografts; assay type: in vivo, mice; conditions: for tumor uptake: 0.3 nmol dose i.v.; for non-specific uptake: 60 and 90 nmol doses i.v.
Method: (§1) Seven-week-old female nu/nu mice were inoculated subcutaneously with KB cells (1.0×10^6/mouse in folate free RPM11640 medium) on the shoulder. […] […] Whole body imaging (intact tumor) experiments were then performed using a Caliper IVIS Lumina II Imaging Station with Living Image 4.0 software (PerkinElmer Inc, MA). Settings for imaging:—lamp level: medium; excitation: 745 nm; emission: 830 nm; epi illumination; binning: 4 (M), FOV=12.5; f-stop=2; acquisition time=1 s.
(§2) Following whole body imaging, animals were dissected and selected tissues (heart, lung, liver, spleen, kidneys, stomach, small intestine, large intestine, muscle, skin, tumor) were analyzed for fluorescence activity using IVIS imager as before. Settings for imaging: lamp level: medium; excitation: 745 nm; emission: 830 nm; epi illumination; binning: 4 (M), FOV=12.5; f-stop=2; acquisition time=1 s.
as §1, with “shoulder. Growth of the tumors was measured in perpendicular directions every 2 days using a caliper (body weights were monitored on the same schedule), and the volumes of the tumors were calculated as 0.5×L×W^2 (L=longest axis and W=axis perpendicular to L in millimeters).” for “shoulder.”, “ICG (830 nm);” for “830 nm;”
as §2, with “skin, and” for “skin,”, “imaging:—lamp” for “imaging: lamp”, “emission:ICG (830 nm);” for “emission: 830 nm;”
Five-week-old female nu/nu mice were inoculated subcutaneously with KB cells (1.0×10^6/mouse in RPMI medium) on their shoulders. Growth of the tumors was measured in two perpendicular directions every 2 days using a caliper (body weights were monitored on the same schedule), and the volumes of the tumors were calculated as 0.5×L×W^2 (L) longest axis and W) axis perpendicular to L in millimeters). Once tumors reached between 400 and 500 mm3 in volume, animals were treated with folate receptor-targeted NIR dye conjugate (10 nmol) in phosphate buffered saline (100 μL). […]
Animal imaging experiments were performed using a Caliper Ivis Lumina II Imaging Station with Living Image 4.0 software. Settings for imaging Alexa Fluor 647 and DyLight 680 conjugates: lamp level: high; excitation: 605; emission: Cy5.5; epi illumination; binning: (M) 4; FOV=7.5; f-stop=4; acquisition time=1 s. Settings for imaging DyLight 750 and IR800CW conjugates: lamp level: high; excitation: 745; emission: ICG; epi illumination; binning: (M) 4, FOV=12.5; f-stop=4; acquisition time=1 s.
Seven-week-old female nu/nu mice were inoculated subcutaneously with KB cells (1.0×10^6/mouse in folate free RPM11640 medium) on the shoulder. Growth of the tumors was measured in perpendicular directions every 2 days using a caliper (body weights were monitored on the same schedule), and the volumes of the tumors were calculated as 0.5×L×W^2 (L=longest axis and W=axis perpendicular to L in millimeters). Once tumors reached between 400 and 500 mm3 in volume, animals (5 mice/group) were intravenously injected with 10 nmol of OTL-0038 or OTL-0039 in phosphate buffered saline (100 μL). After 2.5 hours, animals were euthanized by CO2 asphyxiation. Whole body imaging (intact tumor) experiments were then performed using a Caliper IVIS Lumina II Imaging Station with Living Image 4.0 software (PerkinElmer Inc, MA). […]

[3] = 10 nmol i.v., 2 h, listed as OTL38
[4] = 10 nmol i.v., 2 h, listed as Pte-Tyr-S0456
[5] = 10 nmol tail vein, live imaging
[6] = dose escalation 0.3-90 nmol i.v.

CC1(C)C(/C=C/C2=C(Oc3ccc(C[C@H](NC(=O)c4ccc(NCc5cnc6nc(N)[nH]c(=O)c6n5)cc4)C(=O)[O-])cc3)C(=C/C=C3\N(CCCCS(=O)(=O)[O-])c4ccc(S(=O)(=O)[O-])cc4C3(C)C)/CCC2)=[N+](CCCCS(=O)(=O)[O-])c2ccc(S(=O)(=O)[O-])cc21.[H+].[H+].[H+].[H+] [OTL-0038, Pte-Tyr-S0456]
toxicity (conclusion) ([1]; 1 μmol (1000× clinical dose)): not toxic to animals | skin colour immediately after the injection ([1]; 1 μmol tail vein): became green | activity and behaviour ([1]; 1 μmol tail vein, day 0 to 7): behaved normally throughout the study | body weights over the course of the study ([1]; 1 μmol tail vein, day 0 to 7): remained stable | lesions in tissues (IHC data) ([1]; 1 μmol tail vein, day 7): no lesions identified in any tissues | tumor uptake [2]: lower uptake in folate receptor-positive tumors (weak fluorescence intensity) | tumor uptake ([2]; listed as OTL38): lower uptake in FR-positive tumors (weak fluorescence intensity) | whole body imaging, tissue biodistribution and tumor-to-tissue ([2]; 2 nmol dose, 2 h post injection): excellent | time in which nonspecific skin tissue uptake clears ([2]; 10 nmol): ≤ 24 h | tumor fluorescence intensity, direct comparison ([2]; 10 nmol i.v., 2 h): brighter than the mice treated with the other conjugates | tumor-to-tissue ratios ([2]; 10 nmol i.v., 2 h): excellent tumor-to-tissue ratios except the skin | whole body imaging: accumulation ([2]; 10 nmol i.v., 2 h): accumulated predominantly in the folate receptor-positive tumors | ex vivo tissue biodistribution [2, 3]: highest fluorescence intensity was observed in FR-positive tumors with no accumulation in the other tissues except the kidneys and skin | whole body imaging: accumulation [2, 3]: accumulated predominantly in the FR positive KB tumors | ex vivo tissue biodistribution [2, 4]: accumulated predominantly in the folate receptor positive tumors with no substantial fluorescence activity in other organs except the kidneys | tumor fluorescence intensity, direct comparison [2, 4]: competitive, in terms of fluorescent brightness, to all folate-NIR conjugates | whole body imaging: accumulation [2, 4]: mainly accumulated in the folate receptor positive tumors and no fluorescence was observed in other tissues | ex vivo tissue biodistribution ([2]; 10 nmol i.v., 2.5 h): highest fluorescence intensity was observed in FR-positive tumors with no accumulation in the other tissues except the kidneys; also recorded: mainly accumulated in folate receptor positive tumor xenografts and kidneys | tumor fluorescence intensity, direct comparison ([2]; 10 nmol i.v., 2.5 h): brighter (higher); also recorded: beneficial aspects relative to folate-LS288, folate-IR800, and folate-ZW800 in tumor accumulated fluorescence intensity | tumor-to-normal tissue fluorescence ratios ([2]; 10 nmol i.v., 2.5 h): excellent tumor-to-normal tissue fluorescence ratios | whole body imaging: accumulation ([2]; 10 nmol i.v., 2.5 h): accumulated predominantly in the folate receptor positive tumors | time point at which clearing from the skin starts [2, 5]: 2 h | time to saturate FR [2, 5]: 2 to 4 h | time to accumulate in FR positive tumor and kidneys ([2]; 10 nmol tail vein, live imaging 15 min to 48 h): ≤ 1 h | skin fluorescence ([2]; 10 nmol, 24-48 hour time points): minimal fluorescence | uptake in sliced (dissected) tumors ([2]; 10 nmol, 2 h): accumulated homogeneously in all tumor cells | fluorescence intensity in the skin ([2]; 10 nmol, 24 h post injection, ImageJ): minimal | fluorescence in tumor ([2]; 10 nmol, 48 hour time point): remains high | non-specific uptake [2]: higher non-specific uptake | non-specific uptake ([2]; listed as OTL38): higher non-specific uptake in healthy tissues | highest dose to obtain best tumor-to-background ratio [2, 6]: 30 nmol | lowest dose to obtain good tumor-to-background ratio [2, 6]: 1.0 nmol | kidney uptake ([2]; dose range 0.3-10 nmol): higher kidney uptake | tumor uptake and tumor-to-normal tissue ratio ([2]; dose range 1.0-30.0 nmol i.v.): tumor uptake and excellent tumor-to-normal tissue ratio | kidney uptake ([2]; dose range 30-90 nmol): less kidney uptake (relative to tumor uptake)
